Measurements as given in the supplement of paper PMC11962398.

Assays:
BI-2493 [1] = compound: T1, C[C@H]1CNCCN1c1nccc(-c2noc3c2CCC[C@@]32CCCc3sc(N)c(C#N)c32)n1 [BI-2493]; test: 1 - AUC of viability dose-response curve (sensitivity) (fraction); higher = more sensitive; settings: 5 days
Protocol: (§1)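 PRISM pooled barcoded cancer cell line viability screen (Broad Institute) with BI-2493 at 8 doses in threefold dilutions from 0.00457 to 10 µmol/L, 5-day treatment; curves fitted per cell line. IC50 is undefined (placeholder) for resistant lines. AUC is capped at 1, and sensitivity is reported as 1 − AUC.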

BI-2493 [2] = compound: T1, BI-2493; settings: 5 days
Protocol: as §1

| Test System | 1 - AUC of viability dose-response curve (BI-2493 [1]) | IC50 of cell viability (BI-2493 [2]) [µM] |
| --- | --- | --- |
| 8MGBA_CENTRAL_NERVOUS_SYSTEM | 0.0867 | 6.11 |
| 22RV1_PROSTATE | 0.111 | 5.65 |
| 42MGBA_CENTRAL_NERVOUS_SYSTEM | 0.073 | > 10 |
| 93T449_SOFT_TISSUE | 0.0121 | 9.31 |
| 94T778_SOFT_TISSUE | 0.112 | 5.6 |
| 143B_BONE | 0.0198 | 8.98 |
| 253JBV_URINARY_TRACT | 0.0713 | 6.75 |
| 253J_URINARY_TRACT | 0.0834 | 4.76 |
| 639V_URINARY_TRACT | 0.116 | > 10 |
| 647V_URINARY_TRACT | 0.0938 | 7.05 |
| 697_HAEMATOPOIETIC_AND_LYMPHOID_TISSUE | 0.0309 | 8.3 |
| 769P_KIDNEY | 0.0662 | 6.88 |
| 786O_KIDNEY | 0.241 | 2.69 |
| 921_UVEA | 0.13 | 4.34 |
| 1618K_TESTIS | 0.206 | 2.47 |
| 1777NRPMET_TESTIS | 0.0116 | 9.43 |
| 5637_URINARY_TRACT | 0.225 | 5.2 |
| 8305C_THYROID | 0.00549 | 9.71 |
| 8505C_THYROID | 0.00728 | 9.69 |
| 9505BIK_PANCREAS | 0.321 | 1.57 |
| 2313287_STOMACH | 0.233 | 1.34 |
| A3KAW_HAEMATOPOIETIC_AND_LYMPHOID_TISSUE | 0.191 | 3.54 |
| A101D_SKIN | 0.0656 | 8.09 |
| A172_CENTRAL_NERVOUS_SYSTEM | 0.178 | 4.33 |
| A204_SOFT_TISSUE | 0.163 | 4.24 |

| Test System | 1 - AUC of viability dose-response curve (BI-2493 [1]) | IC50 of cell viability (BI-2493 [2]) [µM] |
| --- | --- | --- |
| A253_SALIVARY_GLAND | 0.197 | 4.12 |
| A375_SKIN | 0.016 | 9.23 |
| A388_SKIN | 0.0151 | > 10 |
| A427_LUNG | 0.349 | 0.735 |
| A498_KIDNEY | 0.113 | 5.88 |
| A549_LUNG | 0.207 | 2.17 |
| A673_BONE | 0.0226 | 9.04 |
| A704_KIDNEY | 0.0519 | 9.08 |
| A1207_CENTRAL_NERVOUS_SYSTEM | 0.179 | 7.21 |
| A2058_SKIN | 0.0892 | 5.91 |
| A2780_OVARY | 0.103 | 5.15 |
| ABC1_LUNG | 0.0666 | 7.12 |
| ACCMESO1_PLEURA | 0.00668 | 9.66 |
| ACHN_KIDNEY | 0.133 | 6.46 |
| AGS_STOMACH | 0.313 | 0.844 |
| ALLSIL_HAEMATOPOIETIC_AND_LYMPHOID_TISSUE | 0.033 | 9.13 |
| AM38_CENTRAL_NERVOUS_SYSTEM | 0.101 | 4.3 |
| AMO1_HAEMATOPOIETIC_AND_LYMPHOID_TISSUE | 0.088 | 5.6 |
| AN3CA_ENDOMETRIUM | 0.142 | 4.74 |
| ANGMCSS_CENTRAL_NERVOUS_SYSTEM | 0.0225 | > 10 |
| ASPC1_PANCREAS | 0.32 | 2.11 |
| AU565_BREAST | 0.0935 | 6.01 |
| BC3C_URINARY_TRACT | 0.193 | 5.1 |
| BCPAP_THYROID | 0.0703 | 6.5 |
| BDCM_HAEMATOPOIETIC_AND_LYMPHOID_TISSUE | 0.0903 | > 10 |

| Test System | 1 - AUC of viability dose-response curve (BI-2493 [1]) | IC50 of cell viability (BI-2493 [2]) [µM] |
| --- | --- | --- |
| BECKER_CENTRAL_NERVOUS_SYSTEM | 0.00973 | 9.55 |
| BEN_LUNG | 0.264 | 1.62 |
| BFTC905_URINARY_TRACT | 0.114 | 6.41 |
| BFTC909_KIDNEY | 0.0855 | 6.33 |
| BHT101_THYROID | 0.0404 | 7.97 |
| BHY_UPPER_AERODIGESTIVE_TRACT | 0.0642 | 5.93 |
| BICR6_UPPER_AERODIGESTIVE_TRACT | 0.178 | 4 |
| BICR16_UPPER_AERODIGESTIVE_TRACT | 0.263 | 5.24 |
| BICR18_UPPER_AERODIGESTIVE_TRACT | 0.147 | 4.16 |
| BICR22_UPPER_AERODIGESTIVE_TRACT | 0.137 | 4.66 |
| BICR31_UPPER_AERODIGESTIVE_TRACT | 0.0764 | 6.97 |
| BICR56_UPPER_AERODIGESTIVE_TRACT | 0.152 | 4.72 |
| BICR78_UPPER_AERODIGESTIVE_TRACT | 0.173 | 5.51 |
| BL2_HAEMATOPOIETIC_AND_LYMPHOID_TISSUE | 0.183 | 4.45 |
| BLUE1_HAEMATOPOIETIC_AND_LYMPHOID_TISSUE | 0.129 | 3.33 |
| BOKU_CERVIX | 0.119 | > 10 |
| BONNA12_HAEMATOPOIETIC_AND_LYMPHOID_TISSUE | 0.117 | > 10 |
| BT12_SOFT_TISSUE | 0.17 | 5.51 |
| BT16_SOFT_TISSUE | 0.189 | > 10 |
| BT474_BREAST | 0.0542 | 9.18 |
| BT549_BREAST | 0.0828 | 8.89 |
| BV173_HAEMATOPOIETIC_AND_LYMPHOID_TISSUE | 0.344 | 1.67 |
| BXPC3_PANCREAS | 0.0507 | > 10 |
| C4I_CERVIX | 0.154 | 3.49 |
| C32_SKIN | 0.0594 | 9.25 |
